Experimental data taken from PubChem BioAssay AID1259407 (Chemical Carcinogenesis Research Information System (CCRIS), 2018).
Active and inactive are the calls of the source. No rule for the calls is given here.

Tested on: CCRIS mutagenicity, Ames/micronucleus/aberration tests
Experiment: CCRIS mutagenicity studies
[1] = Test System: AMES SALMONELLA TYPHIMURIUM, Strain/Indicator: TA98, Metabolic Activation: NONE, Method: STANDARD PLATE
[2] = Test System: AMES SALMONELLA TYPHIMURIUM, Strain/Indicator: TA98, Metabolic Activation: RAT, LIVER, S-9, AROCLOR 1254, Method: STANDARD PLATE
[3] = Test System: AMES SALMONELLA TYPHIMURIUM, Strain/Indicator: TA100, Metabolic Activation: NONE, Method: STANDARD PLATE
[4] = Test System: AMES SALMONELLA TYPHIMURIUM, Strain/Indicator: TA100, Metabolic Activation: RAT, LIVER, S-9, AROCLOR 1254, Method: STANDARD PLATE
[5] = Test System: AMES SALMONELLA TYPHIMURIUM, Strain/Indicator: TA1535, Metabolic Activation: NONE, Method: STANDARD PLATE
[6] = Test System: AMES SALMONELLA TYPHIMURIUM, Strain/Indicator: TA1535, Metabolic Activation: RAT, LIVER, S-9, AROCLOR 1254, Method: STANDARD PLATE
[7] = Test System: AMES SALMONELLA TYPHIMURIUM, Strain/Indicator: TA1537, Metabolic Activation: NONE, Method: STANDARD PLATE
[8] = Test System: AMES SALMONELLA TYPHIMURIUM, Strain/Indicator: TA1537, Metabolic Activation: RAT, LIVER, S-9, AROCLOR 1254, Method: STANDARD PLATE
[9] = Test System: CHINESE HAMSTER V-79, Strain/Indicator: V-79/6-THIOGUANINE, Metabolic Activation: NONE, Method: STANDARD PLATE
[10] = Test System: AMES SALMONELLA TYPHIMURIUM, Strain/Indicator: TA98, Metabolic Activation: HAMSTER, LIVER, S-9, AROCLOR 1254 (10%), Method: PREINCUBATION
[11] = Test System: AMES SALMONELLA TYPHIMURIUM, Strain/Indicator: TA98, Metabolic Activation: NONE, Method: PREINCUBATION
[12] = Test System: AMES SALMONELLA TYPHIMURIUM, Strain/Indicator: TA98, Metabolic Activation: RAT, LIVER, S-9, AROCLOR 1254 (10%), Method: PREINCUBATION
[13] = Test System: AMES SALMONELLA TYPHIMURIUM, Strain/Indicator: TA100, Metabolic Activation: HAMSTER, LIVER, S-9, AROCLOR 1254 (10%), Method: PREINCUBATION
[14] = Test System: AMES SALMONELLA TYPHIMURIUM, Strain/Indicator: TA100, Metabolic Activation: NONE, Method: PREINCUBATION
[15] = Test System: AMES SALMONELLA TYPHIMURIUM, Strain/Indicator: TA100, Metabolic Activation: RAT, LIVER, S-9, AROCLOR 1254 (10%), Method: PREINCUBATION
[16] = Test System: AMES SALMONELLA TYPHIMURIUM, Strain/Indicator: TA1535, Metabolic Activation: HAMSTER, LIVER, S-9, AROCLOR 1254 (10%), Method: PREINCUBATION
[17] = Test System: AMES SALMONELLA TYPHIMURIUM, Strain/Indicator: TA1535, Metabolic Activation: NONE, Method: PREINCUBATION
[18] = Test System: AMES SALMONELLA TYPHIMURIUM, Strain/Indicator: TA1535, Metabolic Activation: RAT, LIVER, S-9, AROCLOR 1254 (10%), Method: PREINCUBATION
[19] = Test System: AMES SALMONELLA TYPHIMURIUM, Strain/Indicator: TA1537, Metabolic Activation: HAMSTER, LIVER, S-9, AROCLOR 1254 (10%), Method: PREINCUBATION
[20] = Test System: AMES SALMONELLA TYPHIMURIUM, Strain/Indicator: TA1537, Metabolic Activation: NONE, Method: PREINCUBATION
[21] = Test System: AMES SALMONELLA TYPHIMURIUM, Strain/Indicator: TA1537, Metabolic Activation: RAT, LIVER, S-9, AROCLOR 1254 (10%), Method: PREINCUBATION

With CC(C)=CC1C(C(=O)OCc2coc(Cc3ccccc3)c2)C1(C)C (stereo not given) the mutagenic call (Test System: AMES SALMONELLA TYPHIMURIUM, Strain/Indicator: TA97, Metabolic Activation: NONE, Method: STANDARD PLATE) was “inactive; negative”, the mutagenic call (Test System: AMES SALMONELLA TYPHIMURIUM, Strain/Indicator: TA97, Metabolic Activation: RAT, LIVER, S-9, PHENOBARBITONE, Method: STANDARD PLATE) was “inactive; negative” and the mutagenic call (Test System: AMES SALMONELLA TYPHIMURIUM, Strain/Indicator: TA98) was “active; positive”. The mutagenic call (Test System: AMES SALMONELLA TYPHIMURIUM, Strain/Indicator: TA98, Metabolic Activation: NONE) was “inactive; negative”, the mutagenic call [1] was “inactive; negative” and the mutagenic call [2] was “inactive; negative”. For the same compound, the mutagenic call (Test System: AMES SALMONELLA TYPHIMURIUM, Strain/Indicator: TA98, Metabolic Activation: RAT, LIVER, S-9, PHENOBARBITONE, Method: STANDARD PLATE) was “inactive; negative”, the mutagenic call (Test System: AMES SALMONELLA TYPHIMURIUM, Strain/Indicator: TA100) was “active; positive” and the mutagenic call (Test System: AMES SALMONELLA TYPHIMURIUM, Strain/Indicator: TA100, Metabolic Activation: NONE) was “inactive; negative”. The mutagenic call [3] was “inactive; negative”, the mutagenic call [4] was “inactive; negative” and the mutagenic call (Test System: AMES SALMONELLA TYPHIMURIUM, Strain/Indicator: TA100, Metabolic Activation: RAT, LIVER, S-9, PHENOBARBITONE, Method: STANDARD PLATE) was “inactive; negative”. The mutagenic call (Test System: AMES SALMONELLA TYPHIMURIUM, Strain/Indicator: TA104, Metabolic Activation: NONE, Method: STANDARD PLATE) was “inactive; negative”, the mutagenic call (Test System: AMES SALMONELLA TYPHIMURIUM, Strain/Indicator: TA104, Metabolic Activation: RAT, LIVER, S-9, PHENOBARBITONE, Method: STANDARD PLATE) was “inactive; negative” and the mutagenic call [5] was “inactive; negative”. For the same compound, the mutagenic call [6] was “inactive; negative”, the mutagenic call [7] was “inactive; negative” and the mutagenic call [8] was “inactive; negative”. The mutagenic call [9] was “inactive; negative”, the mutagenic call (Test System: CHINESE HAMSTER V-79, Strain/Indicator: V-79/6-THIOGUANINE, Metabolic Activation: RAT HEPATOCYTES, Method: STANDARD PLATE) was “inactive; negative” and the mutagenic call (Test System: CHINESE HAMSTER V-79, Strain/Indicator: V-79/OUABAIN, Metabolic Activation: NONE, Method: STANDARD PLATE) was “inactive; negative”. The mutagenic call (Test System: CHINESE HAMSTER V-79, Strain/Indicator: V-79/OUABAIN, Metabolic Activation: RAT HEPATOCYTES, Method: STANDARD PLATE) was “inactive; negative”, the mutagenic call (Test System: E. COLI, Strain/Indicator: WP2, Metabolic Activation: NONE, Method: STANDARD PLATE) was “inactive; negative” and the mutagenic call (Test System: E. COLI, Strain/Indicator: WP2, Metabolic Activation: RAT, LIVER, S-9, AROCLOR 1254, Method: STANDARD PLATE) was “inactive; negative”.

In the case of O=[N+]([O-])c1ccc2cc(O)c3cccc4ccc1c2c43, the mutagenic call [1] was “active; positive” and the mutagenic call [2] was “active; positive”.

In the case of C[CH2][Hg][S]c1ccccc1C(=O)O, the mutagenic call (End Point: IN VITRO MICRONUCLEUS, Test System: HAMSTER V79 CELLS, Metabolic Activation: NONE) was “active; positive”, the mutagenic call [10] was “inactive; negative” and the mutagenic call [11] was “inactive; negative”. For the same compound, the mutagenic call [12] was “inactive; negative”, the mutagenic call [13] was “inactive; negative” and the mutagenic call [14] was “inactive; negative”. For the same compound, the mutagenic call [15] was “inactive; negative”, the mutagenic call [16] was “inactive; negative” and the mutagenic call [17] was “inactive; negative”. For the same compound, the mutagenic call [18] was “inactive; negative”, the mutagenic call [19] was “inactive; negative” and the mutagenic call [20] was “inactive; negative”. For the same compound, the mutagenic call [21] was “inactive; negative”.

CNc1nc2c3cccnc3ccc2n1C was tested, and the mutagenic call (Test System: AMES SALMONELLA TYPHIMURIUM, Strain/Indicator: TA98, Metabolic Activation: RAT, LIVER, S-9, AROCLOR 1254, Method: PREINCUBATION) was “active; positive” and the mutagenic call (Test System: AMES SALMONELLA TYPHIMURIUM, Strain/Indicator: TA100, Metabolic Activation: RAT, LIVER, S-9, AROCLOR 1254, Method: PREINCUBATION) was “active; positive”.

With O=C(O)c1cccc2cccnc12 the mutagenic call [1] was “inactive; negative”, the mutagenic call [2] was “inactive; negative” and the mutagenic call [3] was “inactive; negative”. The mutagenic call [4] was “inactive; negative”, the mutagenic call [5] was “inactive; negative” and the mutagenic call [6] was “inactive; negative”. For the same compound, the mutagenic call [7] was “inactive; negative” and the mutagenic call [8] was “inactive; negative”.

For NC(N)=NC(N)=NCCc1ccccc1, the mutagenic call (End Point: IN VITRO CHROMOSOMAL ABERRATIONS, Test System: CHO CELLS, Metabolic Activation: NONE) was “inactive; negative”, the mutagenic call (End Point: IN VITRO CHROMOSOMAL ABERRATIONS, Test System: CHO CELLS, Metabolic Activation: RAT, LIVER, S-9, PHENOBARBITAL AND BETA-NAPHTHOFLAVONE) was “inactive; negative” and the mutagenic call [10] was “inactive; negative”. The mutagenic call [11] was “inactive; negative”, the mutagenic call [12] was “inactive; negative” and the mutagenic call [13] was “inactive; negative”. The mutagenic call [14] was “inactive; negative”, the mutagenic call [15] was “inactive; negative” and the mutagenic call [16] was “inactive; negative”. The mutagenic call [17] was “inactive; negative”, the mutagenic call [18] was “inactive; negative” and the mutagenic call [19] was “inactive; negative”. For the same compound, the mutagenic call [20] was “inactive; negative” and the mutagenic call [21] was “inactive; negative”.

Oc1cc(Cl)cc(Cl)c1O was tested, and the mutagenic call (Test System: CHINESE HAMSTER V-79, Strain/Indicator: V-79/6-THIOGUANINE, Metabolic Activation: CELL MEDIATED, Method: STANDARD PLATE) was “inactive; negative” and the mutagenic call [9] was “inactive; negative”.

For CS(=O)(=O)Nc1ccc(Nc2c3ccc(N=[N+]=[N-])cc3nc3ccc(N=[N+]=[N-])cc23)cc1, the mutagenic call [7] was “inactive; negative”.

In the case of CC(C)=CCC/C(C)=C/CO, the mutagenic call [1] was “inactive; negative”, the mutagenic call (Test System: AMES SALMONELLA TYPHIMURIUM, Strain/Indicator: TA98, Metabolic Activation: S-9, Method: STANDARD PLATE) was “inactive; negative” and the mutagenic call [3] was “inactive; negative”. For the same compound, the mutagenic call (Test System: AMES SALMONELLA TYPHIMURIUM, Strain/Indicator: TA100, Metabolic Activation: S-9, Method: STANDARD PLATE) was “inactive; negative”.
